# Source: doi:10.64898/2025.12.01.691523v1 (biorxiv, 2025)
# Assays:
# [1] = molecular target: AcFtnHCH (Anopheles culicifacies, UniProt A0A182M0V3); assay: biochemical
# [2] = molecular target: bacterioferritin (Bftn); details: buffer not given in main text
# Sequence of AcFtnHCH (A0A182M0V3 21-216): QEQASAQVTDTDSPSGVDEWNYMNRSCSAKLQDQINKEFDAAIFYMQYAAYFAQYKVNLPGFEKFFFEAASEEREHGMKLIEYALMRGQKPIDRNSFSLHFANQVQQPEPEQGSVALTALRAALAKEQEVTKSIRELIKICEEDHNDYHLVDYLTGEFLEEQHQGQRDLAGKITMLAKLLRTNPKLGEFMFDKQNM
smiles,measurement,setting,value
C=CC1=C(C)C2=Cc3c(C=C)c(C)c4[n]3[Fe]([Cl])[n]3c(c(C)c(CCC(=O)O)c3=CC3=NC(=C4)C(C)=C3CCC(=O)O)=CC1=N2 [hemin],Kd,[1],67.8 ± 6.5 nM
same,Kd,[2],136 ± 21.9 nM
